In patent US12083101B2, “Biaryl derivatives as YAP/TAZ-TEAD protein-protein interaction inhibitors” (Novartis AG, priority 2020, dated 2024):

Experiments:
[1] = molecular target: Avi-humanTEAD4 217-434 / Cy5 labeled humanYAP 60-100 (Homo sapiens (Human), UniProt Q15561); assay: TR-FRET YAP-TEAD4 in-vitro biochemical assay; assay type: binding; details: 1 nM Avi-humanTEAD4 217-434, 20 nM Cy5-humanYAP 60-100, 1 h room temperature
[2] = system: NCI-H2052 Tet-On shYAP_2371 pLenti6 MCAT_Luc cells (YAP-dependent transcription); assay: YAP reporter gene activity assay (MCAT-luciferase), NCI-H2052; assay type: cell-based; details: Homo sapiens, NCI-H2052, 24 h, 24 hours incubation, BrightGlo luminescence
Method: (§1) This cell line was also transduced with a Tet-pLKO-puro-based construct mediating tetracycline-inducible expression of a short-hairpin directed against the 3′UTR of the YAP1 mRNA (5′-[…]-3′).
(§2) Stock solutions of compounds were prepared at a concentration of 10 mM in DMSO and stored at 4° C. Where necessary to afford a full dose-response curve, the stock solutions were pre-diluted in DMSO to 1'000-fold the desired reduced start concentration. On the day after cell seeding, eleven 2-fold serial dilutions of each compound were dispensed directly into the cell assay plates using a HP 300D non-contact Digital Dispenser (TECAN, Mannedorf, Switzerland). The final concentration of DMSO was normalized to 0.1% in all wells.
The ability of compounds to inhibit YAP-dependent transcription was assessed in NCI-H2052 Tet-On shYAP_2371 pLenti6 MCAT_Luc cells, while specificity (lack of unspecific inhibition of luciferase expression of activity) was assessed in MKN-45/Ubc-luc cells. […] Following incubation for 24 hours at 37° C., compound-mediated modulation of reporter-gene activity was quantified 5 min after addition of 20 μl BrightGlo (Promega, Cat #E2620), by measuring luminescence intensity on a multi-mode plate-reader (TECAN, Männedorf, Switzerland, Integration time 100 ms). For data analysis, the assay background value determined in wells containing medium, but no cells, was subtracted from all data points. Dose-dependent compound effects were expressed as % of vehicle-treated control (luminescence signal produced by cells receiving DMSO only) and IC50s calculated using a four-parametric fit model.

[3] = system: NCI-H2052 Tet-On shYAP_2371 pLenti6 MCAT_Luc cells; assay: Proliferation assay (resazurin), NCI-H2052; assay type: cell-based; details: Homo sapiens, NCI-H2052, 72 h, 72 hours incubation
Method: as §1, §2
(§3) The functional effect of compounds on cell proliferation was assessed using NCI-H2052 Tet-On shYAP_2371 pLenti6 MCAT_Luc and MKN-45/Ubc-luc cells by quantifying the reducing capacity of live cells using the redox indicator dye resazurin. […] For data analysis, the assay background value determined in wells containing medium, but no cells, was subtracted from all data points. […] The effect of a particular test compound concentration on cell proliferation/viability was expressed as percentage of day 0-corrected fluorescence reading obtained for cells treated with vehicle only (DMSO, final concentration 0.1%), which was set as 100%, whereas the fluorescence reading for wells containing medium only, but no cells, was set as −100%. Compound concentrations leading to half-maximal growth inhibition (GI50) were determined using standard four parameter curve fitting.

MKN-45/Ubc-luc cells [4] = assay: Proliferation assay (resazurin), MKN-45; assay type: cell-based; details: Homo sapiens, 72 hours incubation
Method: As a specificity control, MKN-45 cells were stably transduced with a Ubc-Luc reporter construct, in which constitutive expression of firefly luciferase is driven by the promoter of the ubiquitin C housekeeping gene.
as §2, §3

MKN-45/Ubc-luc cells [5] = assay: Reporter gene specificity control (Ubc-luciferase), MKN-45; details: Homo sapiens, MKN-45, 24 h, read-out: Reporter gene assay MKN-45 IC50 [μM], MKN-45/Ubc-luc cells (YAP deleted, specificity control), 24 hours incubation

Chain of Avi-humanTEAD4 217-434 / Cy5 labeled humanYAP 60-100 (Q15561 217-434): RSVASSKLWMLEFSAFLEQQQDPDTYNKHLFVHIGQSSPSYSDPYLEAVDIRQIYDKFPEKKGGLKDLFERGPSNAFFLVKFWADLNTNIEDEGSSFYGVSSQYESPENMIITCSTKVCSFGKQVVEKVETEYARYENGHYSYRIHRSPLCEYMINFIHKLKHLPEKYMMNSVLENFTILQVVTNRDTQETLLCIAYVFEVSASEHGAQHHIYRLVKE

Compound | IC50 [1] | IC50 [2] | GI50 [3] | GI50 (MKN-45/Ubc-luc cells [4]) | IC50 (MKN-45/Ubc-luc cells [5])
COCCOc1ccc(C(N)=O)c(-c2c(Cl)c(F)cc3c2C[C@@](CN)(c2ccccc2)O3)c1F (atropisomer, axis not shown) [Example 37, 2-((2S,4S)-2-(aminomethyl)-5-chloro-6-fluoro-2-phenyl-2,3-dihydrobenzofuran-4-yl)-3-fluoro-4-(2-methoxyethoxy)benzamide] | 2 nM | 33 nM | 52 nM | > 10 µM | > 10 µM
NC[C@@]1(c2ccccc2)Cc2c(cc(F)c(Cl)c2-c2c(C(N)=O)ccc(OCCO)c2F)O1 (atropisomer, axis not shown) [Example 38, 2-((2S,4S)-2-(aminomethyl)-5-chloro-6-fluoro-2-phenyl-2,3-dihydrobenzofuran-4-yl)-3-fluoro-4-(2-hydroxyethoxy)benzamide] | 2 nM | 24 nM | 29 nM | > 10 µM | > 10 µM
NC[C@@]1(c2ccccc2)Cc2c(cc(F)c(Cl)c2-c2cc(SC(F)(F)CO)ccc2C(N)=O)O1 (atropisomer, axis not shown) [Example 39, 2-((2S,4R)-2-(aminomethyl)-5-chloro-6-fluoro-2-phenyl-2,3-dihydrobenzofuran-4-yl)-4-((1,1-difluoro-2-hydroxyethyl)thio)benzamide] | 102 nM | 2150 nM | 2830 nM | > 10 µM | > 10 µM
COc1ncc(C(N)=O)c(-c2c(Cl)c(F)cc3c2C[C@@](CN)(c2ccccc2)O3)c1F (atropisomer, axis not shown) [Example 42, 4-((2S,4S)-2-(aminomethyl)-5-chloro-6-fluoro-2-phenyl-2,3-dihydrobenzofuran-4-yl)-5-fluoro-6-methoxynicotinamide] | 6 nM | 391 nM | 493 nM | 9.4 µM | > 10 µM
NC[C@@]1(c2ccccc2)Cc2c(cc(F)c(Cl)c2-c2c(C(N)=O)cnc(OCCO)c2F)O1 (atropisomer, axis not shown) [Example 43, 4-((2S,4S)-2-(Aminomethyl)-5-chloro-6-fluoro-2-phenyl-2,3-dihydrobenzofuran-4-yl)-5-fluoro-6-(2-hydroxyethoxy)nicotinamide] | 5 nM | 47 nM | 94 nM | > 10 µM | > 10 µM
CNC[C@@]1(c2ccccc2)Cc2c(cc(F)c(Cl)c2-c2c(C(N)=O)cnc(OCCOC)c2F)O1 (atropisomer, axis not shown) [Example 47, 4-((2S,4S)-5-Chloro-6-fluoro-2-((methylamino)methyl)-2-phenyl-2,3-dihydrobenzofuran-4-yl)-5-fluoro-6-(2-methoxyethoxy)nicotinamide] | 4 nM | 50 nM | 35 nM | > 10 µM | > 10 µM
CNC[C@@]1(c2ccccc2)Cc2c(cc(F)c(Cl)c2-c2c(C(=O)NC)ccc(OCCO)c2F)O1 (atropisomer, axis not shown) [Example 51, 2-((2S,4S)-5-Chloro-6-fluoro-2-((methylamino)methyl)-2-phenyl-2,3-dihydrobenzofuran-4-yl)-3-fluoro-4-(2-hydroxyethoxy)-N-methylbenzamide] | 3 nM | 62 nM | 71 nM | > 10 µM | > 10 µM
CNC[C@@]1(c2ccccc2)Cc2c(cc(F)c(Cl)c2-c2c(C(=O)NC)ccc(OC[C@H](C)O)c2F)O1 (atropisomer, axis not shown) [Example 52, 2-((2S,4S)-5-chloro-6-fluoro-2-((methylamino)methyl)-2-phenyl-2,3-dihydrobenzofuran-4-yl)-3-fluoro-4-((S)-2-hydroxypropoxy)-N-methylbenzamide] | 11 nM | 109 nM | 174 nM | > 10 µM | > 10 µM
NC(=O)c1ccc(OC(F)F)c(F)c1-c1c(Cl)c(F)cc2c1C[C@@](CN[C@H]1CC[C@H](O)CC1)(c1ccccc1)O2 (atropisomer, axis not shown) [Example 72, 2-((2S,4S)-5-chloro-6-fluoro-2-(((trans-4-hydroxycyclohexyl)amino)methyl)-2-phenyl-2,3-dihydrobenzofuran-4-yl)-4-(difluoromethoxy)-3-fluorobenzamide] | 2 nM | 39 nM | 72 nM | > 10 µM | 9.8 µM
C[C@@H](O)CNC[C@@]1(c2ccccc2)Cc2c(cc(F)c(Cl)c2-c2c(C(N)=O)ccc(OC(F)F)c2F)O1 (atropisomer, axis not shown) [Example 74, 2-((2S,4S)-5-chloro-6-fluoro-2-((((R)-2-hydroxypropyl)amino)methyl)-2-phenyl-2,3-dihydrobenzofuran-4-yl)-4-(difluoromethoxy)-3-fluorobenzamide] | 33 nM | 419 nM | 674 nM | > 10 µM | > 10 µM

Now from value to compound:

IC50 [1] | IC50 [2] | GI50 [3] | GI50 (MKN-45/Ubc-luc cells [4]) | IC50 (MKN-45/Ubc-luc cells [5]) | Compound
2 nM | 15 nM | 36 nM | > 10 µM | > 10 µM | NC(=O)c1ccc(OCCO)c(F)c1-c1c(Cl)c(F)cc2c1C[C@@](CN[C@H]1C[C@H](CO)C1)(c1ccccc1)O2 (atropisomer, axis not shown) [Example 64a, 2-((2S,4S)-5-chloro-6-fluoro-2-((((trans)-3-(hydroxymethyl)cyclobutyl)amino)methyl)-2-phenyl-2,3-dihydrobenzofuran-4-yl)-3-fluoro-4-(2-hydroxyethoxy)benzamide]
3 nM | 22 nM | 41 nM | > 10 µM | > 10 µM | NC(=O)c1ccc(OCCO)c(F)c1-c1c(Cl)c(F)cc2c1C[C@@](CN[C@H]1C[C@@H](CO)C1)(c1ccccc1)O2 (atropisomer, axis not shown) [Example 64b, 2-((2S,4S)-5-chloro-6-fluoro-2-((((cis)-3-(hydroxymethyl)cyclobutyl)amino)methyl)-2-phenyl-2,3-dihydrobenzofuran-4-yl)-3-fluoro-4-(2-hydroxyethoxy)benzamide]
5 nM | 80 nM | 111 nM | > 10 µM | > 10 µM | C[C@]1(O)CC[C@H](NC[C@@]2(c3ccccc3)Cc3c(cc(F)c(Cl)c3-c3c(C(N)=O)ccc(-n4ccnc4)c3F)O2)CC1 (atropisomer, axis not shown) [Example 69a, 2-((2S,4S)-5-chloro-6-fluoro-2-((((trans)-4-hydroxy-4-methylcyclohexyl)amino)methyl)-2-phenyl-2,3-dihydrobenzofuran-4-yl)-3-fluoro-4-(1H-imidazol-1-yl)benzamide]
4 nM | 114 nM | 171 nM | 6.7 µM | 7.8 µM | C[C@]1(O)CC[C@@H](NC[C@@]2(c3ccccc3)Cc3c(cc(F)c(Cl)c3-c3c(C(N)=O)ccc(-n4ccnc4)c3F)O2)CC1 (atropisomer, axis not shown) [Example 69b, 2-((2S,4S)-5-chloro-6-fluoro-2-((((cis)-4-hydroxy-4-methylcyclohexyl)amino)methyl)-2-phenyl-2,3-dihydrobenzofuran-4-yl)-3-fluoro-4-(1H-imidazol-1-yl)benzamide]
33 nM | 231 nM | 467 nM | > 10 µM | > 10 µM | NC(=O)c1ccc(OC(F)F)c(F)c1-c1c(Cl)c(F)cc2c1C[C@@](CN[C@H]1CC[C@@H](O)[C@H](F)C1)(c1ccccc1)O2 (atropisomer, axis not shown) [Example 81a, 2-((2S,4S)-5-chloro-6-fluoro-2-((((1S,3R,4R)-3-fluoro-4-hydroxycyclohexyl)amino)methyl)-2-phenyl-2,3-dihydrobenzofuran-4-yl)-4-(difluoromethoxy)-3-fluorobenzamide]
